Experimental data reported in patent US10336732B2, “1-heterocyclyl isochromanyl compounds and analogs for treating CNS disorders” (Sunovion Pharmaceuticals Inc., priority 2015, dated 2019).

Molecular target: T1, M4 (Homo sapiens, UniProt P08173)
T1 construct: expressed in transfected cells; host or cells: CHO cells
T1 sequence (P08173 1-479): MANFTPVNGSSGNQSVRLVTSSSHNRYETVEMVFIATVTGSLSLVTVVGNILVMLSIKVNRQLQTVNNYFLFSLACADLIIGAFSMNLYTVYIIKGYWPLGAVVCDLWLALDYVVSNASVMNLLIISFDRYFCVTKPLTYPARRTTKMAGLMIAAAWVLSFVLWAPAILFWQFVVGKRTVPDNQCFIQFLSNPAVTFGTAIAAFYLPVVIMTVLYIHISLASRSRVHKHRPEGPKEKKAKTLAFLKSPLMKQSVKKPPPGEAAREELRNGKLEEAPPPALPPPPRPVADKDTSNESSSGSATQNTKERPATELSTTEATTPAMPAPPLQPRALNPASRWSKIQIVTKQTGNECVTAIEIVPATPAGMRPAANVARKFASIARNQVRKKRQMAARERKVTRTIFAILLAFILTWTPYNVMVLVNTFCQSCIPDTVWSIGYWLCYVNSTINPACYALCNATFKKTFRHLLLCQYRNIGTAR
Assay: In vitro radioligand binding assay, M4, [3H]4-DAMP
Conditions: human recombinant (CHO cells)
Method: Certain compounds were tested by in vitro binding assays using standard procedures. […] These receptors and assays are well known to those skilled in the art, as exemplified by the following: Abramovitz, M. et al. (2000), Biochem. Biophys. Acta., 1483: 285-293 (EP4, IP (PGI2)); Aharony, D. et al. (1993), Mol. Pharmacol., 44: 356-363 (NK2); Ardati, A. et al. (1997), Mol. Pharmacol., 51: 816-824 (NOP (ORL1)); Bignon, E. et al. (1999), J. Pharmacol. Exp. Ther. 289: 742-751 (CCK1 (CCKA)); Bloomquist, B. T. et al. (1998), Biochem. Biophys. Res. Commun., 243: 474-479 (GAL2); Brockhaus, M. et al. (1990), Proc. Natl. Acad. Sci. U.S.A., 87: 3127-3131 (TNF-α); Brown, G. B. (1986), J. Neurosci., 6: 2064-2070 (Na+ channel (site 2)); Buchan, K. W. et al. (1994), Brit. J. Pharmacol., 112: 1251-1257 (ETA); Cesura, A. M. et al. (1990), Mol. Pharmacol., 37: 358-366 (MAO-A); Choi, D. S. et al. (1994), FEBS Lett., 352: 393-399 (5-HT2B); Clark, A. F. et al. (1996), Invest. Ophtalmol. Vis. […]

In the case of Fc1cccc2c1CCO[C@@H]2[C@H]1CCN1 [Compound I-96, (R)-2-((S)-5-fluoroisochroman-1-yl)azetidine], the “M4 percent inhibition of specific binding” value is reported as “M4 (53%)”.
